In patent US10597388B2, “Pyridazinone herbicides” (FMC CORPORATION, priority 2014, dated 2020):
Like-named read-outs stand apart in the source and are kept apart here.

Legend:
Format in all cases: in vivo
[1] = test system: pigweed (Amaranthus retroflexus); assay: Test A greenhouse herbicide test, pre- and postemergence; conditions: for pest or weed control at 1000 g/ha: Amaranthus retroflexus, 240 h, 1000 g ai/ha
Outline: (§1)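 Seeds in loam–sand blend received a preemergence directed soil spray; plants at 2–10 cm, one- to two-leaf stage, received postemergence sprays. Compounds in a non-phytotoxic solvent with surfactant. After about 10 d in a greenhouse, injury rated visually versus untreated controls on a 0–100 scale (100 = complete control).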

[2] = test system: wheat (Triticum aestivum); assay: as above; conditions: for plant injury at 1000 g/ha: Triticum aestivum, 240 h, 1000 g ai/ha
Outline: as §1

[3] = test system: corn (Zea mays); assay: as above
Outline: as §1

[4] = test system: foxtail, giant (giant foxtail, Setaria faberii); assay: as above; conditions: for pest or weed control at 1000 g/ha: Setaria faberi, 240 h, 1000 g ai/ha
Outline: as §1

[5] = test system: velvetleaf (Abutilon theophrasti); assay: as above; conditions: 240 h, 1000 g ai/ha, 0 to 100 scale
Outline: as §1

[6] = test system: barnyardgrass (Echinochloa crus-galli); assay: as above; conditions: for pest or weed control at 1000 g/ha: Echinochloa crus-galli, 240 h, 1000 g ai/ha
Outline: as §1

[7] = test system: momingglory (Ipomoea spp.); assay: as above; conditions: 240 h, 1000 g ai/ha, 0 to 100 scale
Outline: as §1

[8] = test system: crabgrass, large (large crabgrass, Digitaria sanguinalis); assay: as above; conditions: 240 h, 1000 g ai/ha, 0 to 100 scale
Outline: as §1

[9] = test system: ducksalad (Heteranthera limosa); assay: Test B flooded paddy test; conditions: 250 g ai/ha, Flood, visual rating on scale of 0 to 100 where 0 is no effect and 100 is complete control, 13 to 15 d after treatment
Outline: (§2)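 Plants grown to the 2-leaf stage. At treatment, pots were flooded to 3 cm above the soil, compound was applied directly to the paddy water, and that depth was held throughout. After 13 to 15 d in the greenhouse, response was rated visually against controls on a 0 (no effect) to 100 (complete control) scale.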

[10] = test system: rice (Oryza sativa); assay: Test B flooded paddy test; conditions: 250 g ai/ha, Flood, visual rating on scale of 0 to 100 where 0 is no effect and 100 is complete control, 13 to 15 d after treatment
Outline: as §2

[11] = test system: sedge, umbrella (small-flower umbrella sedge, Cyperus difformis); assay: Test B flooded paddy test; conditions: 250 g ai/ha, Flood, visual rating on scale of 0 to 100 where 0 is no effect and 100 is complete control, 13 to 15 d after treatment
Outline: as §2

[12] = test system: barnyardgrass (Echinochloa crus-galli); assay: Test B flooded paddy test; conditions: 250 g ai/ha, Flood, visual rating on scale of 0 to 100 where 0 is no effect and 100 is complete control, 13 to 15 d after treatment
Outline: as §2

[13] = test system: galium (catchweed bedstraw, Galium aparine); assay: Test A greenhouse herbicide test, postemergence
Outline: (§3)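 Visual injury score, 0 (no effect) to 100 (complete control), versus untreated controls roughly 10 d after postemergence spray; plants at one- to two-leaf stage, 2 to 10 cm tall, in loam soil and sand, kept in greenhouse.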

[14] = test system: blackgrass (Alopecurus myosuroides); assay: Test A greenhouse herbicide test, postemergence
Outline: as §3

[15] = test system: ryegrass, Italian (Italian ryegrass, Lolium multiflorum); assay: Test A greenhouse herbicide test, pre- and postemergence
Outline: as §1

[16] = test system: ragweed (common ragweed, Ambrosia elatior); assay: as above
Outline: as §1

[17] = test system: kochia (Kochia scoparia); assay: as above
Outline: as §1

[18] = 125 g ai/ha, 0 to 100 scale, 0 no effect, 100 complete control
[19] = 500 g ai/ha, visual rating after approx. 10 d, 0 to 100 scale (0 no effect, 100 complete control)
[20] = Postemergence, 125 g ai/ha, 0 to 100 scale, 0 no effect, 100 complete control
[21] = Postemergence, 500 g ai/ha, visual rating after approx. 10 d, 0 to 100 scale (0 no effect, 100 complete control)
[22] = Preemergence, 500 g ai/ha, 0 to 100 scale where 0 is no effect and 100 is complete control
[23] = Preemergence, second run of lines under the 500 g ai/ha head, rate not given, 0 to 100 scale

Work on `Cc1ccc2oc(C)c(-c3c(O)c(C)nn(C)c3=O)c2c1` [Compound 7, 4-(2,5-dimethyl-3-benzofuranyl)-5-hydroxy-2,6-dimethyl-3(2H)-pyridazinone] yielded a pest or weed control at 1000 g/ha ([1]; post-emergence, Postemergence, 0 to 100 scale, 0 is no effect, 100 is complete control, read-out: Pigweed plant response rating) of 100%, a pest or weed control at 1000 g/ha ([1]; pre-emergence, Preemergence, 0 to 100 scale, 0 no effect, 100 complete control, read-out: Plant response rating, Pigweed) of 100% and a plant injury at 1000 g/ha ([2]; post-emergence, Postemergence, 0 to 100 scale, 0 is no effect, 100 is complete control, read-out: Wheat plant response rating) of 20%. The plant injury at 1000 g/ha ([2]; pre-emergence, Preemergence, 0 to 100 scale, 0 no effect, 100 complete control, read-out: Plant response rating, Wheat) was 0%, the plant injury at 1000 g/ha ([3]; Zea mays, post-emergence, 240 h, Postemergence, 1000 g ai/ha, 0 to 100 scale, 0 is no effect, 100 is complete control, read-out: Corn plant response rating) was 10% and the Corn plant response rating (crop injury, 0 = no effect, 100 = complete kill) at 1000 g/ha ([3]; Zea mays, pre-emergence, 240 h, Preemergence, 1000 g ai/ha, 0 to 100 scale, 0 no effect, 100 complete control) was 30%. For the same molecule, the pest or weed control at 1000 g/ha ([4]; post-emergence, Postemergence, 0 to 100 scale, 0 is no effect, 100 is complete control, read-out: Foxtail, Giant plant response rating) was 90%, the pest or weed control at 1000 g/ha ([4]; pre-emergence, Preemergence, 0 to 100 scale, 0 no effect, 100 complete control, read-out: Plant response rating, Foxtail, Giant) was 90% and the pest or weed control at 1000 g/ha ([5]; post-emergence, Postemergence, 0 is no effect, 100 is complete control, read-out: Velvetleaf plant response rating) was 100%. The pest or weed control at 1000 g/ha ([5]; pre-emergence, Preemergence, 0 no effect, 100 complete control, read-out: Plant response rating, Velvetleaf) was 80%, the pest or weed control at 1000 g/ha ([6]; post-emergence, Postemergence, 0 to 100 scale, 0 is no effect, 100 is complete control, read-out: Barnyardgrass plant response rating) was 90% and the pest or weed control at 1000 g/ha ([6]; pre-emergence, Preemergence, 0 to 100 scale, 0 no effect, 100 complete control, read-out: Plant response rating, Barnyardgrass) was 100%. The pest or weed control at 1000 g/ha ([7]; post-emergence, Postemergence, 0 is no effect, 100 is complete control, read-out: Morningglory plant response rating) was 100%, the pest or weed control at 1000 g/ha ([7]; pre-emergence, Preemergence, 0 no effect, 100 complete control, read-out: Plant response rating, Morningglory) was 80% and the pest or weed control at 1000 g/ha ([8]; post-emergence, Postemergence, 0 is no effect, 100 is complete control, read-out: Crabgrass, Large plant response rating) was 50%. The pest or weed control at 1000 g/ha ([8]; pre-emergence, Preemergence, 0 no effect, 100 complete control, read-out: Plant response rating, Crabgrass, Large) was 90%, the pest or weed control at 250 g/ha ([9]; Heteranthera limosa, 360 h, read-out: Plant response rating, Ducksalad) was 60% and the plant injury at 250 g/ha ([10]; Oryza sativa, 360 h, read-out: Plant response rating, Rice) was 0%. The pest or weed control at 250 g/ha ([11]; Cyperus difformis, 360 h, read-out: Plant response rating, Sedge, Umbrella) was 60% and the pest or weed control at 250 g/ha ([12]; Echinochloa crus-galli, 360 h, read-out: Plant response rating, Barnyardgrass) was 20%.
For `Cc1nn(C)c(=O)c(-c2ccc(Cl)c3ccccc23)c1OP(C)(C)=O` [Compound 187], the “Plant response rating, Galium” value [13, 18] was 90, the “Plant response rating, Galium” value [13, 19] was 100 and the “Plant response rating, Blackgrass” value [14, 18] was 40. The “Plant response rating, Blackgrass” value [14, 19] was 70, the “Plant response rating, Ryegrass, Italian” value [15, 20] was 100 and the “Plant response rating, Ryegrass, Italian” value [15, 21] was 100. The “Plant response rating, Ryegrass, Italian” value [15, 22] was 100, the “Plant response rating, Ryegrass, Italian” value [15, 23] was 100 and the “Plant response rating, Pigweed” value [1, 20] was 70. For the same molecule, the “Plant response rating, Pigweed” value [1, 21] was 90, the “Plant response rating, Pigweed” value [1, 22] was 100 and the “Plant response rating, Pigweed” value [1, 23] was 90. For the same molecule, the “Plant response rating, Wheat” value [2, 20] was 0, the “Plant response rating, Wheat” value [2, 21] was 30 and the “Plant response rating, Corn” value [3, 20] was 0. The “Plant response rating, Corn” value [3, 21] was 30, the “Plant response rating, Ragweed” value [16, 20] was 100 and the “Plant response rating, Ragweed” value [16, 21] was 100. For the same molecule, the “Plant response rating, Ragweed” value [16, 22] was 80, the “Plant response rating, Ragweed” value [16, 23] was 70 and the “Plant response rating, Kochia” value [17, 20] was 90. For the same molecule, the “Plant response rating, Kochia” value [17, 21] was 100, the “Plant response rating, Kochia” value [17, 22] was 100 and the “Plant response rating, Kochia” value [17, 23] was 60. The “Plant response rating, Foxtail, Giant” value [4, 20] was 50, the “Plant response rating, Foxtail, Giant” value [4, 21] was 80 and the “Plant response rating, Foxtail, Giant” value [4, 22] was 70. For the same molecule, the “Plant response rating, Foxtail, Giant” value [4, 23] was 20, the “Plant response rating, Barnyardgrass” value [6, 20] was 30 and the “Plant response rating, Barnyardgrass” value [6, 21] was 80. The “Plant response rating, Barnyardgrass” value [6, 22] was 90, the “Plant response rating, Barnyardgrass” value [6, 23] was 70 and the “Plant response rating, Ducksalad” value [9] was 0. For the same molecule, the “Plant response rating, Rice” value [10] was 20, the “Plant response rating, Sedge, Umbrella” value [11] was 0 and the “Plant response rating, Barnyardgrass” value [12] was 0.
For `Cc1cc(C)c2sc(C)c(-c3c(OCC#N)c(C)nn(C)c3=O)c2c1` [Compound 188], the “Plant response rating, Galium” value [13, 18] was 70, the “Plant response rating, Galium” value [13, 19] was 90 and the “Plant response rating, Blackgrass” value [14, 18] was 10. The “Plant response rating, Blackgrass” value [14, 19] was 60, the “Plant response rating, Ryegrass, Italian” value [15, 20] was 20 and the “Plant response rating, Ryegrass, Italian” value [15, 21] was 80. The “Plant response rating, Ryegrass, Italian” value [15, 22] was 80, the “Plant response rating, Ryegrass, Italian” value [15, 23] was 20 and the “Plant response rating, Pigweed” value [1, 20] was 50. For the same molecule, the “Plant response rating, Pigweed” value [1, 21] was 80, the “Plant response rating, Pigweed” value [1, 22] was 90 and the “Plant response rating, Pigweed” value [1, 23] was 60. The “Plant response rating, Wheat” value [2, 20] was 0, the “Plant response rating, Wheat” value [2, 21] was 0 and the “Plant response rating, Corn” value [3, 20] was 0. For the same molecule, the “Plant response rating, Corn” value [3, 21] was 0, the “Plant response rating, Ragweed” value [16, 20] was 20 and the “Plant response rating, Ragweed” value [16, 21] was 50. For the same molecule, the “Plant response rating, Ragweed” value [16, 22] was 30, the “Plant response rating, Ragweed” value [16, 23] was 10 and the “Plant response rating, Kochia” value [17, 20] was 10. For the same molecule, the “Plant response rating, Kochia” value [17, 21] was 20, the “Plant response rating, Kochia” value [17, 22] was 20 and the “Plant response rating, Kochia” value [17, 23] was 20. For the same molecule, the “Plant response rating, Foxtail, Giant” value [4, 20] was 20, the “Plant response rating, Foxtail, Giant” value [4, 21] was 80 and the “Plant response rating, Foxtail, Giant” value [4, 22] was 90. For the same molecule, the “Plant response rating, Foxtail, Giant” value [4, 23] was 10, the “Plant response rating, Barnyardgrass” value [6, 20] was 10 and the “Plant response rating, Barnyardgrass” value [6, 21] was 20. For the same molecule, the “Plant response rating, Barnyardgrass” value [6, 22] was 30, the “Plant response rating, Barnyardgrass” value [6, 23] was 10 and the “Plant response rating, Ducksalad” value [9] was 0. The “Plant response rating, Rice” value [10] was 0, the “Plant response rating, Sedge, Umbrella” value [11] was 0 and the “Plant response rating, Barnyardgrass” value [12] was 0.
